We go through 29 compounds from patent US20250129067A1 (Progentos Therapeutics, Inc., priority 2021, published 2025).

The subject of series [1] is Oligodendrocyte progenitor cells (OPCs). Nature of the series: In vitro OPC differentiation assay, GPR17 expression (immunocytochemistry). Conditions: 3 μM (10× concentration, final 0.3 μM); 72 hours; fold change over vehicle.
In the next series the target is PDGFRα (Homo sapiens (Human), UniProt P16234). In words: PDGFRα kinase enzyme assay (Promega PDGFRα Kinase Enzyme System, ADP-Glo). As to conditions: 11-point dose response, 10,000 nM to 0.169 nM; 150 uM ATP; BLQ = below limit of quantitation; read-out: IC50 Values on PDGFRα Kinase Inhibition, IC50. The format is biochemical. How it is done:
The PDGFRα enzyme assays were conducted per the manufacturer's directions (Promega PDGFRα Kinase Enzyme System and ADP Glo Assay Cat #V8011). […] 20 ng of purified PDGFRα protein was added to the test article. […] ADP-Glo was added to halt the kinase reaction and deplete the remaining ATP. Kinase detection reagent, containing luciferase and luciferin, was used to convert the ADP signal into luminescence. Luminescence was measured using a Molecular Devices Spectramax ID5 and compared to a standard curve to determine kinase activity. IC50s were calculated using Prism 9, Graphpad software.

Sequence of PDGFRα (P16234 24-1089): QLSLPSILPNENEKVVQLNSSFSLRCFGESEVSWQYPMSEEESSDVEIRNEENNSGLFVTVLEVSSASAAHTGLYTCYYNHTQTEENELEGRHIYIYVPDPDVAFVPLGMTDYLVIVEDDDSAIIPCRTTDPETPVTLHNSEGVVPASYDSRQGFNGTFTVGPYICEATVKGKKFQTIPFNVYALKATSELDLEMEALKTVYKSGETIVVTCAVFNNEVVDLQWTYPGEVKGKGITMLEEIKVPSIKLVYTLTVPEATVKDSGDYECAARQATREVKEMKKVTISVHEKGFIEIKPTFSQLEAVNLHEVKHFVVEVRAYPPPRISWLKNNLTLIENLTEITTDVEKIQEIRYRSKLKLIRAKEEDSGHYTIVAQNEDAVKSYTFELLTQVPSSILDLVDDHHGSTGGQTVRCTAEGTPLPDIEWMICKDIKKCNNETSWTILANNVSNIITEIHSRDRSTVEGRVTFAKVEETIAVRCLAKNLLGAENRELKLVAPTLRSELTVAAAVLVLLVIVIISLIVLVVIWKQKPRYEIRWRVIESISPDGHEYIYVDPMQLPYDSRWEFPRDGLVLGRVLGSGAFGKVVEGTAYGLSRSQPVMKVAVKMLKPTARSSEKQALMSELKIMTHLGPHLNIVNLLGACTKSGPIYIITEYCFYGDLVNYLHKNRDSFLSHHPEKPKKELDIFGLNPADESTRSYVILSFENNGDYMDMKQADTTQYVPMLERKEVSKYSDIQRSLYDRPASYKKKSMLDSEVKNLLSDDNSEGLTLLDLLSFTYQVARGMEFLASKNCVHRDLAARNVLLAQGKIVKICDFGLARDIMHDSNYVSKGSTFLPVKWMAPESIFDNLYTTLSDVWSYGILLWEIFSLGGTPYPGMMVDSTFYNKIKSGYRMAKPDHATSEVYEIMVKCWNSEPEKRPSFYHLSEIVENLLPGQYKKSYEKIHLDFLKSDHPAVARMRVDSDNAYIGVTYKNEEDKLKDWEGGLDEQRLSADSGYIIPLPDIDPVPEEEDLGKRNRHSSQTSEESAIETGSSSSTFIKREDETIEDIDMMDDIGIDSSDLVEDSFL

Turning to `Cn1cc(-c2ccc3c(N4CCN(c5ncc(CC6CCOCC6)cn5)CC4)cnn3c2)cn1` [Compound 68, 6-(1-methyl-1H-pyrazol-4-yl)-3-{4-[5-(tetrahydro-2H-pyran-4-ylmethyl)pyrimidin-2-yl]piperazin-1-yl}pyrazolo[1,5-a]pyridine], the “GPR17 Fold Induction (Over Vehicle; 3 μM)” value (shortened to “GPR17 Fold Induction”) in series [1] is listed as 4.35. In addition, at PDGFRα, the IC50 is 1.24 µM.

For the compound `Cn1cc(-c2ccc3c(N4CCN(c5cnc(Cc6ccccc6)nc5)CC4)cnn3c2)cn1` [Compound 70, 3-[4-(2-benzylpyrimidin-5-yl)piperazin-1-yl]-6-(1-methyl-1H-pyrazol-4-yl)pyrazolo[1,5-a]pyridine], in series [1], the “GPR17 Fold Induction” value turned out to be 3.72. The half-inhibitory concentration (IC50) on PDGFRα is 6.7 µM.

With `Cn1cc(-c2ccc3c(N4CC(c5ncc(Cc6ccccc6)cn5)C4)cnn3c2)cn1` [Compound 72, 3-[3-(5-benzylpyrimidin-2-yl)azetidin-1-yl]-6-(1-methyl-1H-pyrazol-4-yl)pyrazolo[1,5-a]pyridine], the “GPR17 Fold Induction” value in series [1] was determined as 4.75. On PDGFRα, the IC50 is 2.97 µM.

With `Cn1cc(-c2ccc3c(C4CCN(c5ncc(Cc6ccccc6)cn5)C4)cnn3c2)cn1` (stereo not shown) [Compound 75, 3-[1-(5-benzylpyrimidin-2-yl)pyrrolidin-3-yl]-6-(1-methyl-1H-pyrazol-4-yl)pyrazolo[1,5-a]pyridine], the “GPR17 Fold Induction” value in series [1] amounted to 3.34. Moreover, at PDGFRα, the IC50 came out at 6.59 µM.

As to `Cn1cc(-c2ccc3c(-c4ccn(-c5ncc(Cc6ccccc6)cn5)c4)cnn3c2)cn1` [Compound 76, 3-[1-(5-benzylpyrimidin-2-yl)-1H-pyrrol-3-yl]-6-(1-methyl-1H-pyrazol-4-yl)pyrazolo[1,5-a]pyridine], the “GPR17 Fold Induction” value in series [1] turned out to be 6.18. Moreover, the 50% inhibitory concentration (IC50) on PDGFRα is 0.923 µM.

As to `C[C@@H](OC(=O)N1CCN(c2cnn3cc(-c4cnn(C)c4)ccc23)CC1)c1ccccc1F` [Compound 81, (1R)-1-(2-Fluorophenyl)ethyl 4-[6-(1-methyl-1H-pyrazol-4-yl)pyrazolo[1,5-a]pyridin-3-yl]piperazine-1-carboxylate], the “GPR17 Fold Induction” value in series [1] worked out at 6.74. The concentration for half-maximal inhibition (IC50) at PDGFRα turned out to be 0.0972 µM.

Consider `[2H]c1c([2H])c([2H])c(C([2H])([2H])c2cnc(N3CCN(c4cnn5cc(-c6cnn(C)c6)ccc45)CC3)nc2)c([2H])c1[2H]` [Compound 82], for which the “GPR17 Fold Induction” value in series [1] came out at 6.50. In addition, the IC50 on PDGFRα stood at 2.51 µM.

For the compound `Cn1cc(-c2cc3ncc(N4CCN(C(=O)OC(C)(C)C)CC4)n3cn2)cn1` [Compound 83, tert-butyl 4-(7-(1-methyl-1H-pyrazol-4-yl)imidazo[1,2-c]pyrimidin-3-yl)piperazine-1-carboxylate], the “GPR17 Fold Induction” value in series [1] was found to be 6.49. Moreover, the IC50 on PDGFRα came out at 0.948 µM.

Take `Cn1cc(-c2cc3ncc(N4CCCN(C(=O)OC(C)(C)C)CC4)n3cn2)cn1` [Compound 85, tert-butyl 4-(7-(1-methyl-1H-pyrazol-4-yl)imidazo[1,2-c]pyrimidin-3-yl)-1,4-diazepane-1-carboxylate]: in series [1], the “GPR17 Fold Induction” value is 0.82. In addition, at PDGFRα, the IC50 worked out at 1.57 µM.

As to `COCCn1cc(-c2cc3ncc(N4CCN(C(=O)OC(C)(C)C)CC4)n3cn2)cn1` [Compound 88, tert-butyl 4-(7-(1-(2-methoxyethyl)-1H-pyrazol-4-yl)imidazo[1,2-c]pyrimidin-3-yl)piperazine-1-carboxylate], the “GPR17 Fold Induction” value in series [1] stood at 2.90. For the same compound, at PDGFRα, the IC50 stood at 1.6 µM.

As to `CC(C)(C)OC(=O)N1CCN(c2cnc3cc(C4CCOC4)ncn23)CC1` (stereo not shown) [Compound 90, tert-butyl 4-(7-(tetrahydrofuran-3-yl)imidazo[1,2-c]pyrimidin-3-yl)piperazine-1-carboxylate], the “GPR17 Fold Induction” value in series [1] stood at 0.92. Moreover, on PDGFRα, the IC50 is > 10 µM.

For `CC(C)(C)OC(=O)N1CCCN(c2cnc3cc(-c4cccnc4)ncn23)CC1` [Compound 92, tert-butyl 4-(7-(pyridin-3-yl)imidazo[1,2-c]pyrimidin-3-yl)-1,4-diazepane-1-carboxylate], the “GPR17 Fold Induction” value in series [1] is given as 0.81. On PDGFRα, the IC50 was > 10 µM.

Regarding `CC(C)(C)OC(=O)N1CCCN(c2cnc3cc(C4CCOC4)ncn23)CC1` (stereo not shown) [Compound 94, tert-butyl 4-(7-(tetrahydrofuran-3-yl)imidazo[1,2-c]pyrimidin-3-yl)-1,4-diazepane-1-carboxylate], the “GPR17 Fold Induction” value in series [1] is 1.00. Further, the IC50 at PDGFRα was > 10 µM.

Take `CN(CCN(C)c1cnc2cc(-c3cnn(C)c3)ncn12)C(=O)OC(C)(C)C` [Compound 95, tert-butyl methyl(2-(methyl(7-(1-methyl-1H-pyrazol-4-yl)imidazo[1,2-c]pyrimidin-3-yl)amino)ethyl)carbamate]: the “GPR17 Fold Induction” value in series [1] was 1.16. Besides, the IC50 on PDGFRα was > 10 µM.

Take `CN(CCN(C)c1cnc2nc(-c3cnn(C)c3)ccn12)C(=O)OC(C)(C)C` [Compound 96]: the “GPR17 Fold Induction” value in series [1] turned out to be 0.50. Besides, the IC50 on PDGFRα is > 10 µM.

As to `COCCn1cc(-c2cc3ncc(N(C)CCN(C)C(=O)OC(C)(C)C)n3cn2)cn1` [Compound 97, tert-butyl (2-((7-(1-(2-methoxyethyl)-1H-pyrazol-4-yl)imidazo[1,2-c]pyrimidin-3-yl)(methyl)amino)ethyl)(methyl)carbamate], the “GPR17 Fold Induction” value in series [1] is 1.25. For the same compound, the IC50 at PDGFRα was > 10 µM.

In the case of `CN(CCN(C)c1cnc2nc(C3CCOC3)ccn12)C(=O)OC(C)(C)C` (stereo not shown) [Compound 98], the “GPR17 Fold Induction” value in series [1] turned out to be 0.98. Besides, the IC50 on PDGFRα is > 10 µM.

For `CN(CCN(C)c1cnc2cc(-c3cccnc3)ncn12)C(=O)OC(C)(C)C` [Compound 99, tert-butyl methyl(2-(methyl(7-(pyridin-3-yl)imidazo[1,2-c]pyrimidin-3-yl)amino)ethyl)carbamate], the “GPR17 Fold Induction” value in series [1] is given as 0.62. Also, on PDGFRα, the IC50 was > 10 µM.

As to `CN(CCN(C)c1cnc2nc(C3CCOC3)ccn12)C(=O)OC(C)(C)C` (stereo not shown) [Compound 100], the “GPR17 Fold Induction” value in series [1] is listed as 0.83. Moreover, the 50% inhibitory concentration (IC50) at PDGFRα was > 10 µM.

Take `COCCn1cc(-c2ccn3c(N4CCN(C(=O)OC(C)(C)C)CC4)cnc3n2)cn1` [Compound 101, tert-butyl 4-(7-(1-(2-methoxyethyl)-1H-pyrazol-4-yl)imidazo[1,2-a]pyrimidin-3-yl)piperazine-1-carboxylate]: in series [1], the “GPR17 Fold Induction” value stood at 0.67. Besides, the IC50 on PDGFRα was 3.42 µM.

In the case of `CC(C)(C)OC(=O)N1CCN(c2cnc3nc(-c4cccnc4)ccn23)CC1` [Compound 102, tert-butyl 4-(7-(pyridin-3-yl)imidazo[1,2-a]pyrimidin-3-yl)piperazine-1-carboxylate], the “GPR17 Fold Induction” value in series [1] turned out to be 0.58. Further, the IC50 on PDGFRα was 6.98 µM.

On to `CC(C)(C)OC(=O)N1CCN(c2cnc3nc(C4CCOC4)ccn23)CC1` (stereo not shown) [Compound 103, tert-butyl 4-(7-(tetrahydrofuran-3-yl)imidazo[1,2-a]pyrimidin-3-yl)piperazine-1-carboxylate], for which the “GPR17 Fold Induction” value in series [1] is reported as 0.65. For the same compound, the IC50 at PDGFRα was > 10 µM.

As for `Cc1cn(-c2ccn3c(N4CCN(C(=O)OC(C)(C)C)CC4)cnc3n2)cn1` [Compound 104, tert-butyl 4-(7-(4-methyl-1H-imidazol-1-yl)imidazo[1,2-a]pyrimidin-3-yl)piperazine-1-carboxylate], in series [1], the “GPR17 Fold Induction” value was found to be 1.40. Besides, the IC50 on PDGFRα turned out to be 2.8 µM.

For `COCCn1cc(-c2ccn3c(N4CCCN(C(=O)OC(C)(C)C)CC4)cnc3n2)cn1` [Compound 105, tert-butyl 4-(7-(1-(2-methoxyethyl)-1H-pyrazol-4-yl)imidazo[1,2-a]pyrimidin-3-yl)-1,4-diazepane-1-carboxylate], the “GPR17 Fold Induction” value in series [1] is recorded as 0.46. For the same compound, the IC50 on PDGFRα was > 10 µM.

On to `CC(C)(C)OC(=O)N1CCCN(c2cnc3nc(-c4cccnc4)ccn23)CC1` [Compound 106], for which the “GPR17 Fold Induction” value in series [1] is 0.72. Besides, the IC50 at PDGFRα was > 10 µM.

In the case of `CC(C)(C)OC(=O)N1CCCN(c2cnc3nc(C4CCOC4)ccn23)CC1` (stereo not shown) [Compound 107, tert-butyl 4-(7-(tetrahydrofuran-3-yl)imidazo[1,2-a]pyrimidin-3-yl)-1,4-diazepane-1-carboxylate], the “GPR17 Fold Induction” value in series [1] was found to be 0.58. In addition, at PDGFRα, the IC50 is > 10 µM.

As to `CN(CCN(C)c1cnc2nc(-c3cnn(C)c3)ccn12)C(=O)OC(C)(C)C` [Compound 108, tert-butyl methyl(2-(methyl(7-(1-methyl-1H-pyrazol-4-yl)imidazo[1,2-a]pyrimidin-3-yl)amino)ethyl)carbamate], the “GPR17 Fold Induction” value in series [1] is recorded as 0.54. Moreover, on PDGFRα, the IC50 is > 10 µM.

On to `COCCn1cc(-c2ccn3c(N(C)CCN(C)C(=O)OC(C)(C)C)cnc3n2)cn1` [Compound 109, tert-butyl (2-((7-(1-(2-methoxyethyl)-1H-pyrazol-4-yl)imidazo[1,2-a]pyrimidin-3-yl)(methyl)amino)ethyl)(methyl)carbamate], for which, in series [1], the “GPR17 Fold Induction” value was found to be 1.38. At PDGFRα, the IC50 was > 10 µM.

As to `Cn1cc(-c2ccn3c(N4CCC(C(=O)OC(C)(C)C)C4)cnc3n2)cn1` (stereo not shown) [Compound 110, tert-butyl 1-(7-(1-methyl-1H-pyrazol-4-yl)imidazo[1,2-a]pyrimidin-3-yl)pyrrolidine-3-carboxylate], the “GPR17 Fold Induction” value in series [1] is reported as 0.85. Moreover, the IC50 on PDGFRα is > 10 µM.

One may read the IC50 as the concentration needed to halve the response being measured.
